Where a name gives a salt, the structure may show the parent alone.

From patent US7008636B2, “2,3,5-substituted biphenyls useful in the treatment of insulin resistance and hyperglycemia” (Wyeth, priority 1998, dated 2006) come the findings set out here.

This test has as its target T1, recombinant, human protein tyrosine phosphatase (PTP) 1B (hPTP1B) (Homo sapiens, UniProt P18031).
T1 construct: made in house
T1 sequence (P18031 1-435): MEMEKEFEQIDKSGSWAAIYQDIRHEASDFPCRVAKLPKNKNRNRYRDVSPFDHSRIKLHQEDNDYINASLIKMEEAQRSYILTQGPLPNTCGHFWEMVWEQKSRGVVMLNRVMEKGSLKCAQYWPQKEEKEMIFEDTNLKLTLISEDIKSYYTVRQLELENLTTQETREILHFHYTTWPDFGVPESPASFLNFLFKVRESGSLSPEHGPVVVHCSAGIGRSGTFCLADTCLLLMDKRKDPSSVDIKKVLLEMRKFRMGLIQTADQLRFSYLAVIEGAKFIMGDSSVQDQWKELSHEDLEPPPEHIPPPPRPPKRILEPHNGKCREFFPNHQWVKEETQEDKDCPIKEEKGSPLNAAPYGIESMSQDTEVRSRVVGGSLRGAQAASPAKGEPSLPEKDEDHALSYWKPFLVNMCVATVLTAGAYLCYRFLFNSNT
Description: Inhibition of tri-phosphorylated insulin receptor dodecaphosphopeptide dephosphorylation by hPTP1B. The conditions noted are these: 50 μM IR triphosphopeptide substrate, 5 min preincubation and 5 min reaction at 37° C., malachite green-ammonium molybdate phosphate detection. The class given is biochemical.

`O=C(NCCCCCCCCc1ccccc1)c1cc(-c2cccc(C(F)(F)F)c2)c(OCc2nnn[nH]2)c(-c2cccc(C(F)(F)F)c2)c1` [Example 206, 2′-(1H-Tetrazol-5-ylmethoxy)-3,3″-bis-trifluoromethyl-[1,1′:3′1″]terphenyl-5′-carboxylic acid (8-phenyl-octyl)-amide]: the IC50 was 286 nM.
As to `O=C(NCCCCCCCCc1ccccc1)c1cc(Br)c(O)c(-c2cccc(C(F)(F)F)c2)c1` [Example 194, 5-Bromo-6-hydroxy-3′-trifluoromethyl-biphenyl-3-carboxylic acid (8-phenyl-octyl)-amide], the IC50 is 640 nM.
The value for `O=C(O)COc1c(-c2cccc(Cl)c2)cc(C(=O)N(C2CCCCC2)C2CCCCC2)cc1-c1cccc(Cl)c1` [Example 124, (3,3″-Dichloro-5′-dicyclohexylcarbamoyl-[1,1′;3′,1″]terphenyl-2′-yloxy)-acetic acid] was 595 nM; that for `O=C(O)COc1c(-c2cccc(C(F)(F)F)c2)cc(C(=O)NCCCCCCCCc2ccccc2)cc1-c1cccc(C(F)(F)F)c1` [Example 177] was 104 nM; that for `CCCCCCCCCCCCNC(=O)c1cc(-c2cccc(Cl)c2)c(OCC(=O)O)c(-c2cccc(C(F)(F)F)c2)c1` [Example 153, (3″-Chloro-5′-dodecylcarbamoyl-3-trifluoromethyl-[1,1′;3′,1″]terphenyl-2′-yloxy)acetic acid] was 98 nM.
For the compound `COc1cc(COc2c(-c3cccc(C(F)(F)F)c3)cc(C(=O)NCCCCCCCCc3ccccc3)cc2-c2cccc(C(F)(F)F)c2)ccc1C(=O)O` [Example 199, 2-Methoxy-4-[5′-(8-phenyl-octylcarbamoyl)-3,3″-bis-trifluoromethyl-[1,1′:3′1″]terphenyl-2′yloxymethyl]-benzoic acid], the half-inhibitory concentration (IC50) amounted to 102 nM.
On to `CN(CCCCCCCCc1ccccc1)C(=O)c1cc(-c2ccccc2F)c(OCC(=O)O)c(-c2ccccc2F)c1` [Example 118, {2,2″-Difluoro-5′-[methyl-(8-phenyl-octyl)-carbamoyl]-[1,1′;3′,1″]terphenyl-2′-yloxy}-acetic acid], for which the IC50 is 423 nM.
For `Cc1cccc(-c2cc(C(=O)NCCCCCCCc3ccccc3)cc(-c3cccc(C)c3)c2OCCCC(=O)O)c1` [Example 146, 4-[3,3″-Dimethyl-5′-(7-phenyl-heptylcarbamoyl)-[1,1′:3′,1″]terphenyl-2′-yloxy]-butyric acid], the IC50 stood at 258 nM.
Regarding `O=C(NCCCCCCCc1ccccc1)c1cc(-c2cccc(C(F)(F)F)c2)c(OCc2ccc(S(=O)(=O)O)cc2)c(-c2cccc(C(F)(F)F)c2)c1` [Example 130, 4-[5′-(7-Phenyl-heptylcarbamoyl)-3,3″-bis-trifluoromethyl-[1,1′3′,1″]terphenyl-2′-yloxymethyl]-benzenesulfonic acid], the IC50 came out at 56 nM.
Regarding `O=C(NCCCCCCCc1ccccc1)c1cc(-c2cccc(C(F)(F)F)c2)c(OCP(=O)(O)O)c(-c2cccc(C(F)(F)F)c2)c1` [Example 128, [5′-(7-Phenyl-heptylcarbamoyl)-3,3″-bis-trifluoromethyl-[1,1′:3′,1″]terphenyl-2′-yloxymethyl]-phosphonic acid], the IC50 turned out to be 264 nM.
For `CCCCCCCCCCCCNC(=O)c1cc(-c2ccccc2F)c(OCC(=O)O)c(-c2ccccc2F)c1` [Example 110, (5′-Dodecylcarbamoyl-2,2″-difluoro-[1,1′;3′,1″]terphenyl-2′-yloxy)-acetic acid], the IC50 was found to be 300 nM.
With `CCCCCCCCOc1cc(-c2cccc(OC)c2)c(OCC(=O)O)c(-c2cccc(OC)c2)c1` [Example 50, (3,3″-Dimethoxy-5′-octyloxy-[1,1′;3′,1″]terphenyl-2′-yloxy)acetic acid], the IC50 was 254 nM.
On to `O=C(O)COc1ccc(C(=O)NCCCCCCCCc2ccccc2)cc1-c1ccc(F)c(Cl)c1` [Example 136, [3′-Chloro-4′-fluoro-5-(8-phenyl-octylcarbamoyl)-biphenyl-2-yloxy]acetic acid], for which the half-inhibitory concentration (IC50) stood at 455 nM.
Turning to `O=C(O)COc1c(-c2ccccc2F)cc(C(=O)NCCCCCCCCc2ccccc2)cc1-c1ccccc1F` [Example 111, [2,2″-Difluoro-5′-(8-phenyl-octylcarbamoyl)-[1,1′;3′,1″]terphenyl-2′-yloxy)-acetic acid], the IC50 worked out at 700 nM.
The value for `CCCCCCCCCCCCNC(=O)c1cc(Br)c(OCC(=O)O)c(-c2cccc(Cl)c2)c1` [Example 2, (3-Bromo-3′-chloro-5-dodecylcarbamoyl-biphenyl-2-yloxy)acetic acid] was 183 nM; that for `CCCCCCCCCCCCNC(=O)c1cc(Br)c(OS(=O)(=O)c2ccc(C(=O)O)c(O)c2)c(-c2cccc(C(F)(F)F)c2)c1` [Example 179, 4-(3-Bromo-5-dodecylcarbamoyl-3′-trifluoromethyl-biphenyl-2-yloxysulfonyl)-2-hydroxy-benzoic acid] was 25 nM.
As to `O=C(NCCCCCCCCc1ccccc1)c1cc(Br)c(OCc2ccc(C(=O)O)c(O)c2)c(-c2cccc(C(F)(F)F)c2)c1` [Example 208, 4-[3-Bromo-5-(8-phenyl-octylcarbamoyl)-3′-trifluoromethyl-biphenyl-2-yloxymethyl]-2-hydroxy-benzoic acid], the IC50 was 83 nM.
For `CCCCCCCOc1ccc(CNC(=O)c2cc(-c3cccc(Cl)c3)c(OCC(=O)O)c(-c3cccc(Cl)c3)c2)cc1` [Example 162, [3,3″-Dichloro-5′-(4-heptyloxy-benzylcarbamoyl)-[1,1′;3′,1″]terphenyl-2′-yloxy]acetic acid], the IC50 came out at 136 nM.
Take `O=C(O)c1ccc(OCCOc2c(-c3cccc(Cl)c3)cc(C(=O)NCCCCCCCCn3ccc4ccccc43)cc2-c2cccc(Cl)c2)cc1` [Example 165, 4-{2-[3,3″-Dichloro-5′-(8-indol-1-yl-octylcarbamoyl)-[1,1′:3′,1″]terphenyl-2′-yloxy]-ethoxy}benzoic acid]: the IC50 was 77 nM.
The value for `COc1ccc(-c2cc(-c3ccc(C(=O)NCCCCCCCc4ccccc4)cc3)cc(-c3ccc(OC)cc3)c2OCc2ccc(C(=O)O)cc2)cc1` [Example 133] was 102 nM; that for `O=C(O)c1ccc(COc2c(-c3cccc(C(F)(F)F)c3)cc(C(=O)NCCCCCCCc3ccccc3)cc2-c2cccc(C(F)(F)F)c2)cc1` [Example 134, 4-[5′-(7-Phenyl-heptylcarbamoyl)-3,3″-bis-trifluoromethyl-[1,1′:3′,1″]terphenyl-2′-yloxymethyl]-benzoic acid] was 57 nM; that for `O=C(O)CCCCOc1c(-c2cccc(C(F)(F)F)c2)cc(C(=O)NCCCCCCCCc2ccccc2)cc1-c1cccc(C(F)(F)F)c1` [Example 192] was 107 nM.
The value for `CCCCCCCCCCCCNC(=O)c1cc(-c2cccc(Cl)c2)c(OCC(=O)O)c(-c2cccc(Cl)c2)c1` [Example 1, (3,3″-Dichloro-5′-dodecylcarbamoyl-[1,1′;3′,1″]terphenyl-2′-yloxy)-acetic acid] was 63 nM; that for `O=C(NCCCCCCCCc1ccccc1)c1cc(-c2cccc(C(F)(F)F)c2)c(OCCNc2c(O)c(=O)c2=O)c(-c2cccc(C(F)(F)F)c2)c1` [Example 197] was 99 nM; that for `O=C(O)COc1c(-c2cccc(Cl)c2)cc(C(=O)NCCCCCCO)cc1-c1cccc(Cl)c1` [Example 167, [3,3″-Dichloro-5′-(6-hydroxy-hexylcarbamoyl)-[1,1′:3′,1″]terphenyl-2′-yloxy]acetic acid] was 231 nM.
The value for `O=C(O)COc1c(-c2cccc(C(F)(F)F)c2)cc(C(=O)NCCCCCCCCc2ccccc2)cc1-c1ccccc1F` [Example 108, [2″-Fluoro-5′-(8-phenyl-octylcarbamoyl)-3-trifluoromethyl-[1,1′;3′,1″]terphenyl-2′-yloxy)-acetic acid] was 450 nM; that for `COc1cc(COc2c(Br)cc(C(=O)NCCCCCCCCc3ccccc3)cc2-c2cccc(C(F)(F)F)c2)ccc1C(=O)O` [Example 204, 4-[3-Bromo-5-(8-phenyl-octylcarbamoyl)-3′-trifluoromethyl-biphenyl-2-yloxymethyl]-2-methoxy-benzoic acid] was 73 nM.
`CCCCCCCCCCCCNC(=O)c1cc(-c2ccc(F)c(Cl)c2)c(OCC(=O)O)c(-c2ccc(F)c(Cl)c2)c1` [Example 24, (3,3″-Dichloro-5′-dodecylcarbamoyl-4,4″-difluoro[1,1′;3′,1″]terphenyl(-2′-yloxy)-acetic acid sodium salt]: the IC50 amounted to 44 nM.
The value for `CCCCCCCCCCCCNC(=O)c1cc(-c2ccc(OC)cc2)c(OCC(=O)O)c(-c2ccccc2F)c1` [Example 155, (5′-Dodecylcarbamoyl-2″-fluoro-4-methoxy-[1,1′;3′,1″]terphenyl-2′-′yloxy)acetic acid] was 139 nM.
The value for `O=C(NCCCCCCCCc1ccccc1)c1cc(-c2cccc(C(F)(F)F)c2)c(OCCOc2ccc(C(=O)O)c(O)c2)c(-c2cccc(C(F)(F)F)c2)c1` [Example 211, 2-Hydroxy-4-{2-[5′-(8-phenyl-octylcarbamoyl)-3,3″-bis-trifluoromethyl-[1,1′:3′,1″]terphenyl-2′-yloxy]-ethoxy}-benzoic acid] was 60 nM; that for `CN(CCCCCCCCc1ccccc1)C(=O)c1cc(-c2ccc(F)c(Cl)c2)c(OCC(=O)O)c(-c2ccc(F)c(Cl)c2)c1` [Example 213, {3,3″-Dichloro-4,4″difluoro-5′-[methyl-(8-phenyl-octyl)-carbamoyl]-[1,1′;3′1″]terphenyl-2′yloxy}-acetic acid] was 198 nM; that for `O=C(O)COc1c(-c2cccc(Cl)c2)cc(C(=O)NCCCCCCCCc2ccccc2)cc1-c1cccc(Cl)c1` [Example 3, [3,3″-Dichloro-5′-(8-phenyl-octylcarbamoyl)-[1,1′;3′,1″]terphenyl-2′-yloxy]-acetic acid] was 111 nM.
